The text below walks through data of patent US7396946B2, “Compound for treatment of external secretion disorders” (Sucampo AG, priority 1999, dated 2008).

Marks after values point to notes of the source that are not given here.

One data set has as its system normal rabbits. Put plainly: Effect on whole tear secretion of normal rabbits (Schirmer's test, Test Example 1). It counts as in vivo, Male Japanese albino rabbits (Std:JW/CSK). Conditions: for whole tear secretion: 30 μl/eye single instillation, 8 eyes. Here is the method: Male Japanese albino rabbits (Std:JW/CSK) were used.
(2) Method of Administration
Ophthalmic solution comprising 0.001% of 13,14-dihydro-15-keto-16,16-difluoro-PGE1 as an active ingredient of the present invention was prepared and used as a test composition. As a control, the vehicle of said solution without the active ingredient was used.
Each of the compositions was instilled singly to eight eyes at the amount of 30 μl/eye. After the administration, the time course of the tear secretion change was examined according to the following method.
Before (0 hour) and 0.5, 2, 4, and 6 hours after the instillation, the whole tear secretion was determined.
Under no anesthetization, one edge of the Schirmer's test strip (Showa Yakuhin Kako Co., Ltd., Lot No. 70080) was inserted into the conjunctival sac of the each test animal. One minute after, the strip was removed and the length of the moisted part was read from the scale provided on the strip to determine the amount of whole tear secretion.

Data set [1] relates to Rabbit Dry-eye Syndrome Model, which was Induced by Trigeminal Denervation. In words: Whole tear secretion (Schirmer's test) in rabbit dry-eye syndrome model induced by trigeminal denervation (Test Example 2). It counts as in vivo, male Japanese albino rabbits (Std:JW/CSK). Conditions: for whole tear secretion: 5 eyes. Here is the method: Fifteen male Japanese albino rabbits (Std:JW/CSK) were used.
(2) Generating Rabbit Dry-eye Syndrome Model by Trigeminal Denervation.
Urethane (ALDRICH) was administered i.p. at the dose of 1 g/kg to the rabbits of which occipital hair had been shaved.
After disinfecting of the shaved area, midline incision of the skin was made from the frontal bone to the ear root, and the muscular tissue around the periosteum, temporal bone and manidibular articular process were detached. After the detachment, a hole of 2×1.5 cm in size was made in the bone from the parietal medial region to the temporal region by means of the bone drill (URAWA KOGYO Co., Ltd. MINITOR C-130) under the surgical microscope (KONAN CAMERA R&I Inc., PMO-50). Then, the dura was detached from the cranial bone while cotton bud was kept inserted between the temporal bone and the dura. After the detachment was made up to the cranial base, detachment was further made toward the medial border of the petrous part of temporal bone in the carnial cavity, to find the trigeminal nerve in the petrous part. Then, the dura of about 1 to 2 mm on the nasal side of the semilunar ganglion was incised. After the incision, the two branches of nerve fascicle, i.e. the first branch (ocular nerve) of the trigeminal nerve and the second branch (maxillary nerve) were pulled laterally and cut with corneoscleral scissors. Immediately after the operation, miosis of the ipsilateral eye was confirmed and then the cotton kept inserted was removed, and the skin at the head was closed with suture. After the operation, an antibiotic (MYCILLIN SQL® Meiji) was administered i.m. at the dose of 0.1 ml/kg.
The trigeminal denervation was made only on the left eye side, while on the right eye side, no trigeminal denervation nor sham operation was made.
(3) Method of Administration.
13,14-dihydro-15-keto-16,16-difluoro-PGE1 was used as an active ingredient of the present invention to prepare test eyedrops containing 0.0001% and 0.001% of the compound. As a control, the vehicle of the eyedrops without the active ingredient was used.
Each of the compositions was instilled to the eyes everyday at the volume of 30 μl/eye two times a day (at 10:00 and 18:00) for two weeks. Five eyes per each of the test groups and the control group were treated and then examined for the whole tear secretion, the basal tear secretion and the keratoepithelial lesion as follows.
i) Whole Tear Secretion (Schirmer's Test)
Before the start of the instillation (week 0), and 1, 2, and 3 weeks after the start, the whole tear secretion was measured two hours after the first instillation on the day of examination.
Under no anesthetization, one edge of the Schirmer's test strip (Showa Yakuhin Kako Co., Ltd., Lot No. 70080) was inserted into the conjunctival sac of each test animal. One minute after, the strip was removed and the length of the moistened part was read from the scale provided on the strip to determine the amount of whole tear secretion.

In the case of `CCCCC(F)(F)C(=O)CCC1C(O)CC(=O)C1CCCCCCC(=O)O` (stereo not shown) [13,14-dihydro-15-keto-16,16-difluoro-PGE1], the whole tear secretion in the data set on normal rabbits (0.001% ophthalmic solution, 0.5 hr after) is listed as 17.0 ± 0.5 mm/min; in the data set with normal rabbits (0.001% ophthalmic solution, 2 hr after), 14.1 ± 0.5 mm/min; in the data set with normal rabbits (0.001% ophthalmic solution, 4 hr after), 11.7 ± 0.6 mm/min; with normal rabbits (0.001% ophthalmic solution, 6 hr after) it was 10.5 ± 1.0 mm/min; in the data set on normal rabbits (test group 0.001% ophthalmic solution, before the administration (baseline)), 5.3 ± 0.2 mm/min; in data set [1] (0.0001% eyedrops 30 μl/eye two times a day for two weeks, week 1), 7.10 ± 0.51**^++ mm/min. The whole tear secretion was 6.60 ± 0.37*^##++ mm/min in data set [1] (0.0001% eyedrops 30 μl/eye two times a day for two weeks, week 2); 6.30 ± 0.68^++ mm/min in data set [1] (0.0001% eyedrops 30 μl/eye two times a day for two weeks, week 3); 11.20 ± 0.51**^##++ mm/min in data set [1] (0.001% eyedrops 30 μl/eye two times a day for two weeks, week 1); 10.50 ± 0.57**^##++ mm/min in data set [1] (0.001% eyedrops 30 μl/eye two times a day for two weeks, week 2); 9.90 ± 0.81**^##++ mm/min in data set [1] (0.001% eyedrops 30 μl/eye two times a day for two weeks, week 3); 3.00 ± 0.61 mm/min in data set [1] (test group 0.0001% eyedrops, before administration (after operation, baseline)). The compound also registered a whole tear secretion in data set [1] (test group 0.001% eyedrops, before administration (after operation, baseline)) of 3.20 ± 0.51 mm/min. In addition, in the data set with normal rabbits (0.001% ophthalmic solution, versus control group), the “amount of whole tear secretion (result in words)” value is on record as “significant increase”. Moreover, in the data set on normal rabbits (after instillation of 0.001% ophthalmic solution, 30 μl/eye), the “stimulating response, such as rubor in the front of the eye” value is given as “No stimulating response”. For the same compound, in data set [1] (dry-eye syndrome model animals, 0.0001% and 0.001% eyedrops), the “decreased whole tear secretion (result in words)” value is reported as “improved”.
